Results: patent publication US9629857B2, “Therapeutic uses of glutathione mimics” (BOARD OF TRUSTEES OF NORTHERN ILLINOIS UNIVERSITY, priority 2007, dated 2017)

Experiments:
[1] = after first pass metabolism; cited from earlier work
alkaline phosphatase = experiment: Digestion of the phosphorylated prodrug with alkaline phosphatase, followed by 31P NMR; format: in vitro ADME; details: 1 mg (10 units) alkaline phosphatase in water, stirred for 2 hours
Protocol: N-acetyl-S-phosphocysteine was synthesized according to the procedure followed by Binkely (1954). N-acetyl cysteine (0.5 g) was dissolved in 8 mL of distilled water in an ice bath. The NAC solution was then treated with 0.2 mL of phosphorus oxychloride and with sodium hydroxide to maintain the basic pH of 11. The resulting white solid was dried and re-dissolved in deuterium oxide for ^31P, ^13C and ^1H NMR analysis. After analysis, the sample was dried, re-suspended in water, and treated with 1 mg (10 units) of alkaline phosphatase, and stirred for 2 hours. The solution was dried and resuspended in deuterium oxide for NMR analysis.
Synthesis of ester cysteine was followed according to the procedure as follows. NAC (0.2 g) was dissolved in 7 mL of ethanol, 2 mL of concentrated hydrochloric acid and stirred at room temperature for 1 hour. The reaction mixture was refluxed for 1 hour at 60° C. The sample was then dried and resuspended in acetonitrile for ESI-MS analysis (same instrument settings as described for analysis of HIDD). The acid protected sample was phosphorylated with POCL3, and sodium hydroxide dried and resuspended in deuterium oxide for NMR analysis. After analysis, the sample was dried, resuspended in water, treated with 1 mg (10 units) of alkaline phosphatase and stirred for 2 hours. […]
The ester NAC was synthesized according to the procedure as follows and analyzed with ESI-MS. […]

Compound: CC(=O)N[C@@H](CS)C(=O)O [NAC, N-acetyl cysteine]
- presence of free drug in the systemic circulation [1]: around 9%

Compound: CC(=O)N[C@@H](CSP(=O)(O)O)C(=O)O [phosphorylated NAC, N-acetyl-S-phosphocysteine]
- cleavage of S—P linkage on digestion with alkaline phosphatase (31P NMR) (alkaline phosphatase): hydrolyzed with alkaline phosphatase
